For orientation: IC50 means the point on the concentration scale where inhibition reaches its midpoint. Low values mean higher potency, high ones lower potency.

Here are results for 14 molecules from patent publication US20160031907A1, “Substituted Benzene Compounds” (EPIZYME, INC., priority 2013, published 2016).

Some results are limits rather than exact numbers.

The assay relates to WSU-DLCL2 cell line. Put plainly: Cell proliferation analysis (Cell Titer Glo, 6 days). It counts as cell-based. To be noted: Homo sapiens, WSUDLCL2, 144 h; WSU-DLCL2 cells, 6 days incubation, cell viability by ATP (Cell Titer Glo). The source says: Cell Proliferation Analysis
WSU-DLCL2 suspension cells were purchased from DSMZ (German Collection of Microorganisms and Cell Cultures, Braunschweig, Germany). RPMI/Glutamax Medium, Penicillin-Streptomycin, Heat Inactivated Fetal Bovine Serum were purchased from Life Technologies, Grand Island, N.Y., USA. V-bottom polypropylene 384-well plates were purchased from Greiner Bio-One, Monroe, N.C., USA. Cell culture 384-well white opaque plates were purchased from Perkin Elmer, Waltham, Mass., USA. Cell-Titer Glo® was purchased from Promega Corporation, Madison, Wis., USA. SpectraMax M5 plate reader was purchased from Molecular Devices LLC, Sunnyvale, Calif., USA.
WSU-DLCL2 suspension cells were maintained in growth medium (RPMI 1640 supplemented with 10% v/v heat inactivated fetal bovine serum and cultured at 37° C. under 5% CO2. Under assay conditions, cells were incubated in Assay Medium (RPMI 1640 supplemented with 20% v/v heat inactivated fetal bovine serum and 100 units/mL penicillin-streptomycin) at 37° C. under 5% CO2.
For the assessment of the effect of compounds on the proliferation of the WSU-DLCL2 cell line, exponentially growing cells were plated in 384-well white opaque plates at a density of 1250 cell/ml in a final volume of 50 μl of assay medium. A compound source plate was prepared by performing triplicate nine-point 3-fold serial dilutions in DMSO, beginning at 10 mM (final top concentration of compound in the assay was 20 μM and the DMSO was 0.2%). A 100 nL aliquot from the compound stock plate was added to its respective well in the cell plate. The 100% inhibition control consisted of cells treated with 200 nM final concentration of staurosporine and the 0% inhibition control consisted of DMSO treated cells. After addition of compounds, assay plates were incubated for 6 days at 37° C., 5% CO2, relative humidity >90% for 6 days. Cell viability was measured by quantization of ATP present in the cell cultures, adding 35 μl of Cell Titer Glo® reagent to the cell plates. Luminescence was read in the SpectraMax M5. The concentration inhibiting cell viability by 50% was determined using a 4-parametric fit of the normalized dose response curves.
For orientation: In ATP-based viability assays light output follows the ATP content of the culture.

In the case of `CCN(c1cc(Cl)cc(C(=O)NCc2c(C)cc(C)n3ccnc23)c1C)[C@H]1CC[C@H](N(C)C)CC1` [Cpd 1], the IC50 was more than 25 µM.
Next, `CCN(c1cc(Cl)cc(C(=O)NCCc2ncc[nH]2)c1C)[C@H]1CC[C@H](N(C)C)CC1` [Cpd 10]: more than 50 µM.
Take `CCN(c1cc(Cl)cc(C(=O)NCc2cn3ccsc3n2)c1C)C1CCOCC1` [Cpd 26]: the half-inhibitory concentration (IC50) is more than 50 µM.
In the case of `CCN(c1cc(Cl)cc(C(=O)NCc2cn(C)cn2)c1C)C1CCOCC1` [Cpd 25], the IC50 is more than 50 µM.
For the molecule `CCN(c1cc(Cl)cc(C(=O)NCc2nccs2)c1C)C1CCOCC1` [Cpd 24], the IC50 was more than 50 µM.
`CCN(c1cc(Cl)cc(C(=O)NCc2ccn(C)n2)c1C)C1CCOCC1` [Cpd 28] had an IC50 of more than 50 µM.
Next, `CCN(c1cc(Cl)cc(C(=O)NCc2cc(C)on2)c1C)C1CCOCC1` [Cpd 29]: more than 50 µM; `CCN(c1cc(Cl)cc(C(=O)NCc2c[nH]cn2)c1C)C1CCOCC1` [Cpd 30]: 44.1 µM; `CCN(c1cc(Cl)cc(C(=O)NCc2nccn2C)c1C)C1CCOCC1` [Cpd 23]: more than 50 µM.
In the case of `CCN(c1cc(Cl)cc(C(=O)NCc2cccn3ccnc23)c1C)[C@H]1CC[C@H](N(C)C)CC1` [Cpd 3], the IC50 is more than 25 µM.
As for `CCN(c1cc(Cl)cc(C(=O)NCc2cnn(C)c2C)c1C)C1CCOCC1` [Cpd 27], the figure is more than 50 µM; as for `CCN(c1cc(Cl)cc(C(=O)NCc2cc(C)nn2C)c1C)C1CCOCC1` [Cpd 31], more than 50 µM; as for `CCN(c1cc(Cl)cc(C(=O)NCc2cncn2C)c1C)C1CCOCC1` [Cpd 22], more than 50 µM.
As for `CCN(c1cc(Cl)cc(C(=O)NCc2c(C)ccn3ccnc23)c1C)[C@H]1CC[C@H](N(C)C)CC1` [Cpd 2], the figure is more than 25 µM.
